Where “and” joins values, the source holds several entries; their conditions need not be identical. Identical values can stand only once.
Legend:
Format in all cases: in vivo
[1] = Safety and effectiveness of daily capromorelin in cats with CKD for 90 days (field study, Example 9)
Experimental: This study was to confirm the safety and effectiveness of AT-002 (capromorelin) in cats under field conditions using a dose of 2 mg/kg administered once daily for 90 days. The study tested the hypotheses that AT-002 will maintain or increase bodyweight, improve body condition score (BCS), improve muscle condition score (MCS), improve appetite and/or improve quality of life (QoL) in cats. This was a double-masked, randomized, placebo-controlled, multi-site, proof of concept field study.
This study enrolled cats diagnosed with chronic kidney disease (CKD) and a minimum 6-month history of losing weight. The enrollment target was for a minimum of 15 evaluable cases in the AT-002 group and 15 evaluable cases in the Control Product (CP; placebo) group. The Investigator and all study personnel were masked to treatment code (A or B) and treatment group (AT-002 or CP). The Dispenser and Owner remained blinded to treatment group (AT-002 or CP).
Cats were treated with a dosage of 2 mg/kg body weight of AT-002 (AT-002) or a placebo (CP) formulation at the same dose volume as the AT-002 once daily for 90±3 days. Day 0 was the first day of dosing. Cats were evaluated on Day 0, Day 14±1, Day 30±2, Day 60±3 and Day 90±3. The primary effectiveness variable was change in bodyweight from Day 0 through Day 90±3. Secondary effectiveness variables included BCS, MCS, owner appetite assessments and owner QoL assessments.
After enrollment, each case was randomly assigned to AT-002 or CP in a 1:1 ratio. The enrollment target was at least 30 evaluable cases (15 AT-002 and 15 CP) per the study randomization schedule across all sites.
Cats included in the study were spayed/neutered cats of any age and breed with a documented historical decrease in bodyweight over the previous 6 months, and a diagnosis of chronic kidney disease (IRIS stages II, III or IV). Cats on medications for certain stable, chronic conditions were allowed. Excluded from the study were cats in crisis or moribund, cats with documented and uncontrolled hyperthyroidism or inflammatory bowel disease, cats in which food intake is contraindicated (i.e. suspected foreign body, gastrointestinal surgery), cats with dental disease severe enough to impair food intake, cats with diabetes, and cats currently receiving prohibited medications.
The Owner maintained the feeding regime the cat was on at study enrollment. No special foods and no special feeding schedule were required. Water was available ad libitum. The cat's diet was monitored and a “Diet History” completed when the Investigator interviewed the Owner at screening/qualification (Day 0), Day 30±2, Day 60±3 and Day 90±3 or at the last study visit (i.e. early removal).
Bodyweight was measured in pounds to the nearest tenth decimal place as part of the physical examination at screening/qualification/Day 0, Day 14±1, Day 30±2, Day 60±3 and Day 90±3 and at the time of any unscheduled visit or early removal from the study. […]

[2] = Cat dose titration laboratory study (21 days): food consumption and bodyweight; details: cats; for Mean % Change (±SD) in Food Consumption Over 21 Days: Day 1-21 vs Days -3 to -1, listed as AT-002, L-tartrate; for Mean % Change (±SD) in Bodyweight Over 21 Days: Day 1 to Day 22
Experimental: This study tested the effectiveness of an oral formulation of AT-002 in laboratory cats and to select a dose that would cause increased food intake and weight gain. This study investigated the effects of a capromorelin oral solution in cats dosed at 1 mg/kg, 2 mg/kg or 3 mg/kg compared to placebo (n=8/group) for 21 days. Food consumption was measured each day from Day −10 through Day 21. For each cat, baseline food consumption was calculated as the average of Days −3, −2 and −1. The percent change from baseline to treatment period was calculated as 100× (treatment period minus baseline)/baseline. Bodyweight was measured on Day 1, Day 8, Day 15 and Day 22. Baseline bodyweight was defined as the value collected on Day 1 (prior to treatment).

IGF-1 = experiment: 91-day cat safety study: serum IGF-1; details: cats, 6 mg/kg, compared to placebo controls; sustained, peak at Day 30
Experimental: This controlled study included two treatment groups with 4 adult cats receiving placebo (Group 1) and 8 adult cats receiving capromorelin (Formulation #9, as described above) (Group 2) for 91 consecutive days. All cats were offered food daily for a 6-hour period following an 11-day acclimation phase. All cats were weighed on Days −11, −1, 1, 14, 30, 59, 75, and 91. On Days 1 through 91, animals were orally administered capromorelin once daily via syringe at dose levels of 0 or 6 mg/kg. At one hour post-dose, all cats were offered food for a 6-hour period. Variables of interest included weight gain/loss, food consumption, clinical pathology, and serum analysis of IGF-1 and GH.
On Days 1, 30, 59, and 91, blood samples were collected prior to daily dose administration and at 8 hours post-dose and processed to serum for analysis of IGF-1 and GH levels. […] Serum chemistry parameters measured included albumin (ALB), creatine kinase (CK), albumin/globulin ratio (A\G), globulin (GLOB), alkaline phosphatase (ALP), glucose (GLU), fructosamine, alanine aminotransferase (ALT), blood urea nitrogen (BUN), phosphorus (PHOS), calcium (Ca), potassium (K), chloride (Cl), sodium (Na), cholesterol (CHOL), total protein (TP), creatinine (CRE), total bilirubin (TBIL), BUN/creatinine ratio, and sodium/potassium ratio.

CN1N=C2CCN(C(=O)[C@@H](COCc3ccccc3)NC(=O)C(C)(C)N)C[C@@]2(Cc2ccccc2)C1=O.O=C(O)C(O)C(O)C(=O)O [capromorelin, N-[(2R)-1-[(3aR)-2-methyl-3-oxo-3a-(phenylmethyl)-6,7-dihydro-4H-pyrazolo[4,3-c]pyridin-5-yl]-1-oxo-3-(phenylmethoxy)propan-2-yl]-2-amino-2-methylpropanamide L-tartrate]
adverse events with evidence for a potential relationship to treatment ([1]; 2 mg/kg once daily, 90 days): increased salivation and potentially vomiting
tolerability ([1]; 2 mg/kg once daily, 90 days): well-tolerated
body condition score, muscle condition score, owner appetite assessment and quality of life parameters ([1]; 2 mg/kg once daily, vs placebo): no meaningful statistical differences
bodyweight during the treatment period ([1]; 2 mg/kg oral once daily, 90 days): gained weight
mean descriptive (monthly) quality of life score ([1]; 2 mg/kg, Day 0 to Day 90): remained the same
Mean % Change (±SD) in Food Consumption Over 21 Days ([2]; 1 mg/kg, 1 mg/kg): 25.3% and 25.32 ± 16.70%
Mean % Change (±SD) in Bodyweight Over 21 Days ([2]; 1 mg/kg): 5.41 ± 4.11%
Mean % Change (±SD) in Food Consumption Over 21 Days ([2]; 2 mg/kg, 2 mg/kg): 45.7% and 45.67 ± 24.39%
Mean % Change (±SD) in Bodyweight Over 21 Days ([2]; 2 mg/kg): 6.61 ± 5.05%
Mean % Change (±SD) in Food Consumption Over 21 Days ([2]; 3 mg/kg, 3 mg/kg): 29.6% and 29.59 ± 13.65%
Mean % Change (±SD) in Bodyweight Over 21 Days ([2]; 3 mg/kg): 3.92 ± 5.15%
IGF-1 following treatment (IGF-1): increased

Source: patent publication US10064909B2, “Compositions and methods for chronic use of a weight-gaining compound” (priority 2015, dated 2018)
